In brackets after ≈: the same amount, converted by molar mass. Entries after “also recorded” stand apart in the source; their conditions may differ.
Key:
HIV-1 = settings: literature reports, background; cited from earlier work
cyclophilin A = cyclophilin A (Homo sapiens, UniProt P62937); settings: background; cited from earlier work
hepatitis C virus = settings: Paeshuyse et al. 2005; cited from earlier work
[1] = system: concanavalin A-stimulated murine splenocytes; experiment: Concanavalin A (ConA)-stimulated murine splenocyte assay; assay type: cell-based, BALB/c mice; settings: for IC50: novel cyclosporin alkyne analogue, ConA-stimulated murine splenocytes, [3H]thymidine incorporation
Experimental: Male BALB/c mice, at 5 to 7 weeks of age, were sacrificed by CO2 inhalation. Spleens were removed and dissociated by pushing through a nylon cell strainer. The splenocytes were washed in RPMI 1640/5% fetal calf serum (FCS) and pelleted at 400×g. Red blood cells were then lysed by resuspending the cell pellet in ACK lysis buffer (150 mM NH4Cl, 1 mM KHCO3, 0.1 mM EDTA, 3 mL per spleen) for 10 min at room temperature. After pelleting at 400×g, the cells were washed by resuspending in RPMI 1640/5% FCS and repelleting. The cell pellet was resuspended in RPMI 1640/5% FCS and again passed through a cell strainer to remove cell aggregates. The cells were then counted and adjusted to 2×10^6 cells/ml in RPMI 1640/10% FCS/50 μM 2-mercaptoethanol. Cell viability was assessed by Trypan blue staining. Cyclosporin A or the test compound and two micrograms of concanavalin A were added to the wells of a 96 well plate, prior to the addition of 2×10^5 splenocytes. The cells were cultured in a 37° C. CO2 incubator for 2 days and then pulsed with 1 μCi of [^3H]thymidine for 6 hours. Cells were harvested onto filtermats with a TomTec 96 well plate harvester and lysed with H2O. The filtermat and scintillation fluid were sealed in a plastic sleeve. [^3H]thymidine incorporation was measured with a Wallac Trilux plate counter. Initial screens were done at a fixed value of 100 ng/ml test compound. IC50s were calculated from 7 point concentration-response curves using GraphPad software.

calcineurin = settings: background; cited from earlier work
[2] = cited from earlier work

Chain of cyclophilin A (P62937 whole entry): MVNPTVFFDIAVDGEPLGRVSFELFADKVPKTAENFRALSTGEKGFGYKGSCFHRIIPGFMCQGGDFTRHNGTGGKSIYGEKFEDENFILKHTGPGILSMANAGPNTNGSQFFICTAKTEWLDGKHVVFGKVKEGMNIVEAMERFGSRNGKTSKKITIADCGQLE

In the case of `C/C=C/C[C@@H](C)[C@@H](O)[C@H]1C(=O)N[C@@H](CC)C(=O)N(C)[C@H](C)C(=O)N(CC)[C@@H](C(C)C)C(=O)N[C@@H](C(C)C)C(=O)N(C)[C@@H](CC(C)C)C(=O)N[C@@H](C)C(=O)N[C@H](C)C(=O)N(C)[C@@H](CC(C)C)C(=O)N(C)[C@@H](CC(C)C)C(=O)N(C)[C@@H](C(C)C)C(=O)N1C` [DEBIO-025], the anti-HIV-1 activity (HIV-1) is listed as “effective for the treatment of HIV-1”, the “binding affinity for cyclophilin A” value (cyclophilin A) is listed as “potent binding affinity” and the “inhibition of hepatitis C virus replication” value (hepatitis C virus) is listed as “potent and selective inhibition”.
With `CCC1NC(=O)C(C(O)C(C)CC=CC#CBr)N(C)C(=O)C(C(C)C)N(C)C(=O)C(CC(C)C)N(C)C(=O)C(CC(C)C)N(C)C(=O)C(C)NC(=O)C(C)NC(=O)C(CC(C)C)N(C)C(=O)C(C(C)C)NC(=O)C(CC(C)C)N(C)C(=O)CN(C)C1=O` (centres unmarked) [Example 15, cyclosporin alkynyl bromide] the “IC50” value [1] was 8 ng/mL.
For `CC[C@@H]1NC(=O)[C@H]([C@H](O)[C@H](C)C/C=C/C#CC2CC2)N(C)C(=O)[C@H](C(C)C)N(C)C(=O)[C@H](CC(C)C)N(C)C(=O)[C@H](CC(C)C)N(C)C(=O)[C@@H](C)NC(=O)[C@H](C)NC(=O)[C@H](CC(C)C)N(C)C(=O)[C@H](C(C)C)NC(=O)[C@H](CC(C)C)N(C)C(=O)CN(C)C1=O` [Example 33, cyclosporin cyclopropyl alkyne], the “potency in immunosuppression compared to cyclosporin A and ISATX247” value ([1]; FIG. 1 legend) was “enhanced or similar potency” and the “IC50” value [1] was 9 ng/mL (≈ 7.18 nM).
For `C/C=C/C[C@@H](C)[C@@H](O)[C@H]1C(=O)N[C@@H](CC)C(=O)N(C)CC(=O)N(C)[C@@H]([C@@H](C)CC)C(=O)N[C@@H](C(C)C)C(=O)N(C)[C@@H](CC(C)C)C(=O)N[C@@H](C)C(=O)N[C@H](C)C(=O)N(C)[C@@H](CC(C)C)C(=O)N(C)[C@@H](CC(C)C)C(=O)N(C)[C@@H](C(C)C)C(=O)N1C` [SDZ NIM 811], the inhibition of calcineurin (calcineurin) is given as “does not inhibit”, the anti-HIV-1 activity (HIV-1) is given as “potent and selective anti-HIV-1 activity” and the immunosuppressive activity ([2]; Mlynar et al. 1997, background) is given as “completely devoid of immunosuppressive activity; also recorded: none of the immunosuppressive activity”.
In the case of `CC#CC[C@@H](C)[C@@H](O)[C@H]1C(=O)N[C@@H](CC)C(=O)N(C)CC(=O)N(C)[C@@H](CC(C)C)C(=O)N[C@@H](C(C)C)C(=O)N(C)[C@@H](CC(C)C)C(=O)N[C@@H](C)C(=O)N[C@H](C)C(=O)N(C)[C@@H](CC(C)C)C(=O)N(C)[C@@H](CC(C)C)C(=O)N(C)[C@@H](C(C)C)C(=O)N1C` [known cyclosporin alkyne], the “relative immunosuppressive activity compared to cyclosporin A” value ([2]; Rich et al., J. Med. Chem. 33:999-1009 (1990)) is listed as 10%.
With cyclosporin alkynyl iodide [Example 13] the “IC50” value [1] was 1 ng/mL.
